Assay [1] relates to FT gene under EcR-based gene switch. The experiment in a line: FT expression by qRT-PCR over the time-course of induction in ID14-50 plants. The class given is in vivo, Arabidopsis. The settings on record: homozygous ID14-50 T3 plants, all concentrations (10, 50, 250 nM), long and short day photoperiod. An excerpt: FT expression was characterized at five time-points over the time-course of induction. One leaf per plant was collected at time-zero before ligand application corresponding to 17 and 24 days old plants in long and short day photoperiod, at one day after treatment started corresponding to 18 and 25 days old plants, four days after treatment started corresponding to 21 and 28 days old plants, seven days after ligand application started corresponding to 24 and 31 days old plants and, eleven days after treatment started corresponding to 28 and 35 days old plants for RNA extraction using a Qiagen RNA easy kit. First-strand cDNA was synthesized from the total RNA to be used as template for qRT-PCR analysis. qRT-PCR was set-up as previously described for T2 characterization. […] For most homozygous plants FT expression stayed relatively high and to a similar level from day one to day seven post-treatment before going down a little by day eleven post-treatment. For all time points, tissue was collected at the end of a period of induction, right before treatment was re-applied. […] FT expression in mock-treated plants as well as null and mutant treated plants stayed very low for the most part over the eleven days of treatment. In all genotypes, there is a large variation in FT expression among individual plants in the groups of siblings.
For orientation: Quantitative PCR measures a nucleic acid by following its amplification.

Another assay deals with GUS reporter gene. The experiment in a line: Ligand inducible GUS silencing (Agro-infiltration, X-gluc staining) in DCL1/DCL2/GUS hairpin petunia lines. The format is cell-based. As to the method:
Assay for Agro-infiltration. Transient β-glucoronidase (GUS) expression, was modified from previously reported literature (Wroblewski et al. (2005) Plant Biotechnol. J. 3(2):259-273). Specifically, Agrobacterium tumefaciens strain EHA105 containing an appropriate plasmid for GUS expression was grown overnight to an OD600 of 0.8 and re-suspended in induction buffer with the following components: MS basal medium (Sigma-Aldrich), 10 mM MgCl2, and 100 uM acetosyringone. After 4 hours, induced culture suspension was infiltrated into detached fully expanded petunia leaves (approximately 0.1 mL/leaf). Leaves were incubated in a humidity chamber at 28° C. for 3 days.
Histochemical X-gluc staining for GUS visualization. […]
Ligand inducible hairpin expression for dsRNA synthesis targeting two Botrytis cinerea genes and the GUS reporter gene. Ligand inducible expression of the DCL1/DCL2/GUS hairpin cassette was evaluated using the transient Agrobacterium-mediated GUS expression as described above only detached leaves were sprayed with 50 uM ligand or mock treated with water prior to Agro-infiltration. […]
Eight independent Switch-DCL1/DCL2/GUS petunia lines were evaluated by detaching 6 leaves from each line and splitting into two treatments. […]

The next assay concerns Botrytis cinerea. The experiment in a line: Ligand inducible disease resistance screening of detached petunia leaves. The format is in vivo. As to the method: Botrytis cinerea isolation and inoculation. The plant pathogen was isolated from diseased strawberries displaying typical symptomology. A single spore colony was isolated using standard plant pathology methodologies and the ITSI—5.8S rDNA—ITSII locus was amplified and sequenced to validate its identity. The isolate used is 100% identical to more than 20 previously reported B. cinerea isolates in Genbank. For plant inoculation B. cinerea was grown on V8 Agar media under fluorescent light for 2 weeks until the typical grey mass of aerial spores was visible. A section of the colony was placed into 10 mL of sterile DI water and vortexed vigorously to dislodge spores. The resulting solution was filtered through a 70 micron mesh to yield a homogenous spore solution free of mycelia and agar media. The spore solution was spun down and washed 3× in sterile DI water and quantified using a hemocytometer. The solution was diluted in sterile DI water to a final concentration of 200,000 spores/ml. For petunia inoculations, detached leaves were wounded with a sterile forceps (approximately 0.5 mm abrasion) and the wounded site was inoculated with 10 μL of spore solution (2,000 spores/inoculation site). Three leaves/treatment and three wound sites/leaf were inoculated with spore solution for each assay. […]

Experimental findings from patent US12344852B2, “Control of phenotype in plants” (GREENVENUS, LLC, priority 2016, dated 2025) are described below.

Take `COc1cccc(C(=O)NN(C(=O)c2cc(C)cc(C)c2)C(C)(C)C)c1C` [methoxyfenozide, 3-methoxy-2-methylbenzoic acid 2-(3,5-dimethylbenzoyl)-2-(1,1-dimethylethyl)hydrazide]: the FT expression result in assay [1] is given as “increases as early as one day post-treatment”. For the same molecule, the “GUS expression in constitutive controls DCL-25 and DCL-6” value with GUS reporter gene (50 uM ligand vs water) is “did not show any ligand induced changes to GUS expression”. Moreover, the “GUS expression in Switch DCL-8 line” value with GUS reporter gene (50 uM sprayed on detached leaves twice, Agro-infiltration at 3 days, X-gluc staining 3 days later, listed as ligand) was “ligand induced GUS silencing”. For the same molecule, the “disease resistance of Switch-DCL1/DCL2/GUS hairpin line” value in the assay with Botrytis cinerea (leaves on 50 uM in 1% phytoagar, inoculated after 3 days, read 7 days after pathogen inoculation) is reported as “ligand induced disease resistance”. In the assay with Botrytis cinerea (presence or absence of 50 uM ligand), the “disease resistance of constitutive DCL-25 (+ control) and non-specific dsRNA line (− control)” value is recorded as “no change in disease resistance”.
